Laboratory results as given in patent US20050032810A1, “Novel anthelmintic and insecticidal compositions” (priority 2003, published 2005).

Test system: H. contortus larvae
Assay: H. contortus Larval Development Assay
Assay type: cell-based
Settings: at 10 μM
From the text: Compounds can be evaluated for anthelmintic activity according to the H. contortus Larval Development Assay described in Journal of Helminthology, 1984, 58, 107.

In the case of `Nc1cc(N2CCC(c3ccccc3)CC2)nc(N)n1` [Compound 2, 6-(4-phenylpiperidin-1-yl)pyrimidine-2,4-diamine], the “motility of the larvae” value is reported as “inhibited motility of the larvae”.
